Test results: PubChem BioAssay AID652113 (The Scripps Research Institute Molecular Screening Center, 2013)

Test system: PAMPA artificial membrane permeability, LC-MS, 5 h
Assay: PubChem AID 652113
Settings: stronger effect = higher value

**Q.** For `COC(=O)c1cc(Br)cnc1N1CCC(NC2CCCCC2)C(O)C1` (stereo unspecified), which permeability is on record?
**A.** 16.5 ×10⁻⁶ cm/s
